The values below come from patent US11174216B2, “Lipids that increase insulin sensitivity and methods of using the same” (Beth Israel Deaconess Medical Center, Inc., priority 2012, dated 2021).

The test system of test [1] is isolated rat islets. The test is described as follows: Insulin release studies in rat islets. Format: cell-based. Particulars: 25 mM glucose in the media. As for the experimental part: Ins1 cells (FIGS. 31A and 31B) or primary rat islet cells (FIG. 32A and FIG. 32B) were seeded in 24 well-plates [˜10^6 cells/well]. At confluence, cells were incubated with Low Serum [2.5%] and Low Glucose [2.5 mM] media for 12 hours. Next, cells were incubated with KRB buffer for 1 h and stimulated with glucose in the presence of 5-PAHSA (FIGS. 31a and 31B) or 9-PAHSA (FIG. 31B) for 45 min in KRB. At the end of the stimulation, 100 μL of media was collected and 10 μL was used to quantitate the amount of insulin released by ELISA. Treatment Conditions for FIGS. 31A, 31B and 32B were: • 5-PAHSA or 9-PAHSA [Stock]=20.0 mM [10.76 mg/mL Methanol] • A] 1 uM=0.3 uL/6 mL [Amount of methanol/mL=0.05 uL] • B] 5 uM=1.5 uL/6 mL [Amount of methanol/mL=0.25 uL] • C] 10 uM=3.0 uL/6 mL [Amount of methanol/mL=0.50 uL] • D] 20 uM=6.0 uL/6 mL [Amount of methanol/mL=1.00 uL] […]
Isolated rat islets were cultured overnight in RPMI 1640 medium containing 2.5 mM glucose and 2.5% fetal bovine serum supplemented with 100 IU/ml penicillin and 100 IU/ml streptomycin, 1 mM sodium pyruvate, and 10 mM HEPES (pH 7.4). […] At the end of the stimulation supernatant was collected and insulin released into the medium was quantified by ELISA as per manufacturer's protocol. The islets were lysed and protein content was measured and the amount of insulin released into the media was quantitated as ng/mL/μg of protein.

Test [2] relates to LPS-activated dendritic cells. The test is described as follows: LPS-induced maturation/activation of bone marrow-derived dendritic cells. Format: cell-based, mouse. As for the experimental part:
Mouse bone marrow cells were flushed from the femurs and tibiae. The red blood cells were eliminated and the cells plated at a density of 1.0×10^6 cells/mL in RBMI complete medium containing 10% FCS plus 20 ng/ml GM-CSF. The medium was replaced on day 4, and the cells were harvested on day 6 to obtain immature DCs. To obtain mature DCs, LPS was added to the cultures at a final concentration of 100 ng/mL on day 6, and the cells were cultured for an additional 24 h, as previously described by Macia, L., et al. Impairment of dendritic cell functionality and steady-state number in obese mice. J Immunol 177, 5997-6006 (2006), which is incorporated by reference in its entirety. […] The activation status of the BMDCs was evaluated by measuring the expression of MHCII and co-stimulatory molecules using Flow Cytometry and by the production of pro-inflammatory cytokines (IL-6, TNF, IL-12 and IL-1β) which was assessed by ELISA. […]
The immature dendritic cells obtained in the day 6 were maturated with LPS in the presence of different concentrations of 9-PAHSA varying between 100 ng/mL to 20 ug/mL. The cells were maturated for 24 h and the maturation status analyzed by cytokine production and co-stimulatory molecules expression.
The cells were analyzed by Multicolor Flow cytometry. […] The cells were analyzed with an LSR II flow cytometer (BD) and FlowJo software. […]

As for `CCCCCCCCCCCCCCCC(=O)OC(CCCCCCCCCCCCC)CCCC(=O)O` (stereo not drawn) [5-PAHSA], in test [1], the glucose-stimulated insulin secretion entry is “potentiates glucose-stimulated insulin secretion”.

As to `CCCCCCCCCCCCCCCC(=O)OC(CCCCCCCCC)CCCCCCCC(=O)O` (stereo not drawn) [9-PAHSA, palmitoyl-9-hydroxystearic acid], in test [2] (100 ng/mL LPS, 24 h, flow cytometry), the “LPS-induced dendritic cell activation (expression of MHCII, CD40, CD80, CD86)” value is “prevents LPS-induced dendritic cell activation in a dose dependent manner”. Also, in test [2] (LPS-activated dendritic cells, ELISA), the IL-12 production result was “blocks IL-12 production”.
